Measured values taken from paper PMC7803973, “Structural basis of malaria parasite phenylalanine tRNA-synthetase inhibition by bicyclic azetidines” (Nature Communications, 2021).
Where “and” joins values, the source holds several entries; their conditions need not be identical. Equal entries are not always repeated.

What was measured:
[1] = system: Plasmodium falciparum strain 3D7; experiment: Parasite growth inhibition (drug susceptibility test, pLDH readout); type: cell-based; conditions: 3D7; for IC50: Plasmodium falciparum
Description: (§1) The cultivation of P. falciparum was conducted according to Trager’s method with some modification. Precisely, parasites were kept in culture flasks with RPMI1640 medium supplemented with 10% human plasma and 2% fresh human erythrocytes and incubated at 37 °C with the gas condition of 5% CO2 and 5% O2. The parasitemia (percentage of infected erythrocytes to total erythrocytes) were kept within 0.25–10%. Culture medium was replaced, and fresh erythrocytes were supplied every 2–3 days. Drug susceptibility test was conducted according to Desjardins’s method[18] with some modification. […] […] The plates were kept at 37 °C with the gas condition of 5% CO2 and 5% O2 for 72 h and then parasite growth was quantified with Makler’s method to detect plasmdoial lactate dehydrogenase[19] with some modification. Precisely, culture plates were kept in freezer overnight and then thawed at 37 °C to disrupt the erythrocytes and parasite cells. In the new 96-well titer plates, 100 μl of enzyme reaction solution (110 mM Li-lactate, 0.5 mM acetylpyridine-adenine dinucleotide, 50 mM Tris (pH 7.5), 10 mM EDTA, 50 mM KCl, and 15 g l^−1 PEG6000) and 20 µl of freeze-thaw culture were mixed in each well and then kept at room temperature for 30 min. The detection solution was prepared by mixing equal volume of 2 mg ml^−1 nitro blue tetrazolium and 0.1 mg ml^−1 phenazine ethosulfate and 20 µl of the solution was added to each well.

[2] = system: Plasmodium falciparum strain K1; experiment: microbe, parasite or virus in culture; type: cell-based; conditions: K1; for IC50: Plasmodium falciparum
Description: as §1

[3] = system: parasite; design: method as in PMID 27602946; conditions: increasing concentrations of L-Phe; cited from earlier work
[4] = system: PfcFRS mutant (L550V); experiment: Kinetic parameter (Km) determination, malachite green; type: biochemical, Plasmodium falciparum; conditions: PfcFRS-L550V versus PfcFRS WT
Description: (§2) In both cases the reaction was carried out for 2 h at 37 °C. Data were fitted to Michaelis–Menten equations using Prism graph 6.0 software.

[5] = system: N[C@@H](Cc1ccccc1)C(=O)O; experiment: as above; type: biochemical, Plasmodium falciparum; conditions: other: PfcFRS mutant (L550V); ATP saturating 500 μM; pH 7.5; 37.0 °C
Description: as §2

[6] = substrate: N[C@@H](Cc1ccccc1)C(=O)O; experiment: as above; type: biochemical, Plasmodium falciparum; conditions: other: PfcFRS WT; ATP saturating 500 μM; pH 7.5; 37.0 °C
Description: as §2

[7] = target: the molecule itself; experiment: crystal structure; PvcFRS with BRD1389 and Mg2+, space group P2(1)2(1)2, one αβ heterodimer per asymmetric unit, 3.0 Å
[8] = target: the molecule itself; experiment: SEC; purified PvcFRS on a Superdex 200 analytical gel filtration column

## C[C@@H]1CC[C@H]2[C@@H](C)C(=O)O[C@@H]3O[C@@]4(C)CC[C@@H]1[C@]32OO4 [Artemisinin, artemisinin]
[1]; 0.000195313 ug/mL
  % Parasite Growth: 91.8%
[1]; 0.000390625 ug/mL
  % Parasite Growth: 88.1%
[1]; 0.00078125 ug/mL
  % Parasite Growth: 90.1%
[1]; 0.0015625 ug/mL
  % Parasite Growth: 91.8%
[1]; 0.003125 ug/mL
  % Parasite Growth: 91.0%
[1]; 0.00625 ug/mL
  % Parasite Growth: 92.6%
[1]; 0.0125 ug/mL
  % Parasite Growth: 61.0%
[1]; 0.025 ug/mL
  % Parasite Growth: 3.0%
[1]; 0.05 ug/mL
  % Parasite Growth: 2.5%
[1]; 0.1 ug/mL
  % Parasite Growth: 2.3%
[1]; 0.2 ug/mL
  % Parasite Growth: 2.8%
[1]
  IC50: 0.0143 µg/mL and 50.5 nM
[2]; 0.000195313 ug/mL
  % Parasite Growth: 95.0%
[2]; 0.000390625 ug/mL
  % Parasite Growth: 92.3%
[2]; 0.00078125 ug/mL
  % Parasite Growth: 92.8%
[2]; 0.0015625 ug/mL
  % Parasite Growth: 94.4%
[2]; 0.003125 ug/mL
  % Parasite Growth: 92.0%
[2]; 0.00625 ug/mL
  % Parasite Growth: 76.5%
[2]; 0.0125 ug/mL
  % Parasite Growth: 6.1%
[2]; 0.025 ug/mL
  % Parasite Growth: 2.9%
[2]; 0.05 ug/mL
  % Parasite Growth: 3.5%
[2]; 0.1 ug/mL
  % Parasite Growth: 3.3%
[2]; 0.2 ug/mL
  % Parasite Growth: 3.6%
[2]
  IC50: 0.00811 µg/mL and 28.7 nM

## COc1ccc(NC(=O)N2CCCCN3[C@H](CN)[C@H](c4ccc(C#Cc5ccccc5)cc4)[C@@H]3C2)cc1 [BRD1095]
[3]
  EC50 shift with L-Phe: higher EC50 values with increasing concentrations of L-Phe

## CCN(CC)CCCC(C)Nc1ccnc2cc(Cl)ccc12 (centres unmarked) [Chloroquine, chloroquine]
[1]
  IC50: 0.00914 µg/mL and 17.7 nM
[2]
  IC50: 0.139 µg/mL and 269 nM

## N[C@@H](Cc1ccccc1)C(=O)O [L-Phe, L-phenylalanine]
[4]
  increase in Km value for L-Phe, mutant vs WT: 10 fold and ~ 10 fold

## PfcFRS mutant (L550V) (Plasmodium falciparum 3D7; L550V)
[5]
  Km: 1.85 ± 0.84 µM

B1: PfcFRS wild type (WT) (Plasmodium falciparum 3D7) (protein)
chain: MSTNNVEEKKNEELYNLLNILEEEFNLSKIENKNNNKNDDGDDDDVNKREDNNNNEYYKKLKDEKGLDVLINEYTTSLKISKKYNIDHNKVMGMIKKLETLYYIINLIKSFNTYHLSDEGKQYLKEGSPEFIVIKYVIQNNKCTLEDLKKNLGKIGDIGLNTNLKNRTIQLNKADKCLTCNCNLHDIQDFTQIYLDIINQYGHDEELLFAHLKNKNHTKNALNNNEMKNSCKDNNIINNLIQDLKKRKLLEIKKNSYSHVIKTSIFKKDIKKQITDINYLLLKNEEYKKYDIKKYNFFSSGKKINKGNIHLLTKQMRTFKEIFFSLGFEEMETHNYVESSFWCFDALYIPQQHPSRDLQDTFFIKEPETCIDKFVDTEYIDNIKRVHTHGDYGSFGWNYKWKLEESKKNVLRTHTTANSCRALFKLAKEYKEAGCIKPKKYFSIDRVFRNENLDSTHLAEFHQVEGLIIDKNIGLSHLIGTLAAFYKHIGIHKLKFKPTFNPYTEPSMEIYGYHEQSKKWLEVGNSGIFRPEMLRSMGFSEEVSVIAWGLSLERPTMIKYNIKNIRDLFGYKSVV
[6]
  Km: 0.25 ± 0.017 µM

B2: PvcFRS αβ heterodimer as in the crystal (alpha subunit without residues 1-270) (complex, Plasmodium vivax)
chain 1: LTYLLIKNEEYKKYQVKKYNFFSSGKKMNKGNIHLLIRQMRTFKDVFVSLGFEEMNTHNYVESSFWCFDALYIPQQHPSRDLQDTFFIKVPEMCQEEFTDQSYIENVKRVHSVGDYGSFGWNYQWELKSTKKNVLRTHTTANSCRALFQLAKEYQKTGSIIPKKFFSIDRVFRNENLDSTHLAEFHQVEGLIIDRNLGLSHLIGTLSAFYKYIGISKLRFKPTFNPYTEPSMEVYGYHEENKKWLEVGNSGIFRPEMLRAMGFPPEVSVIAWGLSLERPTMIKYSIRNIRDLFGYRSVI
chain 2: MPTISVHEEDLIEKLGEKIEEEKLNDICFEFGIEIDDVEYKGEKKIYKIEVPANRYDLVCVEGLCRALKSFIGKYENVSYALLTNSEEACVKEKHFMRVDESVDERRSYVVSAVLKNVKMNENVYNNIIELQEKLHHNLGKKRILLAIGIHDYDKINFPVAYKFEEKEKINFIPLNETQNVNGNNFINFYQDNINLKSYLKIISDFEKFPVIVDAGGQILSLPPIINCDYTKITYDTRNLFIECTAIDRNKAEIAVNIICSMLSEYCTPKYSIHSFFVQYDKNHKAEKGNGYLYPVFKNKTLTCHMDYVRKLSGILNLSVKDVEPLLKKMMITSKVIDSSTFTVDVPFYRSDIMHFCDIVEDIAIAYGYGNIVSEKIEIAKKNSLSACTELFRNVLAECTYTEVMTNALLSKRENYDCMLRKHRSYDDRKINLDEYNPLAPPVQIMNSKTSEYEIVRTSLIVNMLKFVSANKHRELPLRFFEIGDVSYTTYDRTDTNAVNKRYLSVIFADKFTAGLEEAHGMLETVLKEFQLFSDYKIEEKSKENVAIRSDVFYKLVPKEDPSFLNERVVDIVLCPHNLKFGIMGIIHPKVLENFSIDIPVSVIEINIETIMDVLMM
notes: PvcFRS alpha subunit, Plasmodium vivax, gene PVX_081300; N-terminal domain (residues 1-270) absent in the crystal; PvcFRS beta subunit, Plasmodium vivax, gene PVX_090880, full length; also called heterodimer (αβ); PvcFRS-BRD1389 complex; source: E. coli B834, both subunits co-expressed, purified (Ni-NTA, heparin); crystallised with BRD1389 and MgCl2
[7]
  binding result: binds

B3: PvcFRS αβ heterodimer (full-length subunits) (complex, Plasmodium vivax)
chain 1: MQAKAQEEQKGEELSQFLQALEEEFALCQEGGGDKREADGPSLENAEAEELANRRAYYLQLKEERNVLVEESKHVTSLHMSSKHNIEHAKVLGMAKKLETLYYVVNHVRSFNTYQLTEEGKEYLRDGSPEHVTLRYVMEQEGCTLEDLKKLFGKKGEIGLNINLKKKKIELRKSDKRLFPHVEGSAHSLVDETRCYLQKVEAHGNDEGALVSHLKGILPPEKGEKKEEDEANNLIKELKKRKLIEAKKISYIYIIRTNLFTKEIKKQITDLTYLLIKNEEYKKYQVKKYNFFSSGKKMNKGNIHLLIRQMRTFKDVFVSLGFEEMNTHNYVESSFWCFDALYIPQQHPSRDLQDTFFIKVPEMCQEEFTDQSYIENVKRVHSVGDYGSFGWNYQWELKSTKKNVLRTHTTANSCRALFQLAKEYQKTGSIIPKKFFSIDRVFRNENLDSTHLAEFHQVEGLIIDRNLGLSHLIGTLSAFYKYIGISKLRFKPTFNPYTEPSMEVYGYHEENKKWLEVGNSGIFRPEMLRAMGFPPEVSVIAWGLSLERPTMIKYSIRNIRDLFGYRSVI
chain 2: B2 chain 2
notes: PvcFRS alpha subunit, Plasmodium vivax, gene PVX_081300, full length; PvcFRS beta subunit, Plasmodium vivax, gene PVX_090880, full length; The heterodimer that pairs with itself to the (αβ)2 heterotetramer in solution; also called heterodimer (αβ); source: E. coli B834, both subunits co-expressed, purified (Ni-NTA, heparin)
[8]
  stoichiometry N: 2
